Experiments:
rat aortic ring [1] = assay: Rat aortic ring angiogenesis assay (Examples 1 and 2); type: cell-based
Method: Rat aorta were removed and cleaned of adhering fatty and connective tissues before being cut into rings of approximately 3 mm width. Fibrinogen was applied to the bottoms of wells of multi-well culture plates and allowed to gel by thrombin action. An aortic ring was then layered on the top of each gel and a further layer of fibrin placed on this. The fibrinogen was prepared in MCDB131 medium (Sigma, United States) supplemented with antibiotics. The double layer of fibrin was then overlaid with MCDB131 medium containing the test extracts. Control wells contained HBSS. Fumagillin (20 μg/mL) was assayed in triplicate as a negative control.
The gels were incubated at 37° C. in an atmosphere of 3% CO2/97% air. The rings were examined using an inverted microscope and the growth of microvessels from their perimeters is observed. Digital pictures were taken of these every 2 days and the extent of microvessel growth relative to the size of the ring was determined using National Institute of Health (NIH) Image software (National Institutes of Health (NIH), Rockville Pike, Bethesda, Md., United States, and the rate of growth of microvessels was then determined for each well. Each test extract was assayed in triplicate and the mean growth rate was calculated.
Additional analysis of several of the MLA008E2 fractions was performed using the rat aortic ring assay (in vitro angiogenesis) as described in Example 1.8 and a rat dorsal flap assay (wound healing assay).

[2] = test system: bovine aorta endothelial cells; assay: Endothelial cell migration assay; type: cell-based; conditions: compared to the background level of migration (cells and media); 22±1 hour
Method: Bovine aorta where obtained from a local abattoir and clamped at either end. Arterioles were tied off with string. The aorta was washed free of contaminating blood with 2% sucrose solution under sterile conditions. Trypsin was added in PBS buffer and incubated for 30 minutes. The endothelial cell suspension was mixed 1:1 with cell culture media (DMEM containing 20% foetal bovine serum, 2% glutamine and antibiotics). The cells were collected by centrifugation at 960×g for 10 minutes then suspended in media prior to culturing stock cell ampoules. After five cell passages the cells were frozen in 10% DMSO and stored in liquid nitrogen. […] The cells were then harvested for use.
BD Bioscience angiogenesis cell migration assay 24 well plates (BD Bioscience, Franklin Lakes, N.J., United States) were used as per the manufacturers instructions. The migration plate was kept at −18° C. until required. Briefly, bovine aorta endothelial cells were prepared in DMEM and HEPES pH 7.2 at 2×10^5 cells/mL. A 250 μL volume of the cell suspension (5×10^4 cells) were added to the top chamber. Immediately, 750 μL was added to each of the bottom wells using the sample port to the bottom wells. Samples were prepared by adding the glycoprotein extract to 1 mL of DMEM containing HEPES. The plate was incubated for 22±1 hour at 37° C., 5% CO2 atmosphere. […]

elastase I = biological target: T1, elastase I (Sus scrofa, UniProt P00772); assay: Chaperone activity: protection of elastase I from heat denaturation; type: biochemical; conditions: boiling water bath for 30 seconds
T1 construct: purchased Worthington Biochemical Corporation 2280
Method: Bovine crystallin fractions were tested for ability to protect the proteases elastase I, trypsin and chymotrypsin from heat denaturation. Briefly, the proteases were heated in a boiling water bath for 30 seconds in the presence or absence of the crystallin fractions.

rat aortic ring [3] = assay: Rat aortic ring angiogenesis assay (Example 4.3); type: cell-based, Lewis rat; conditions: for % of Control: microvessel growth; for activity in promoting angiogenesis: summary of second study
Method: Four separate studies were carried out to determine the angiogenic effect of crystallin preparations. Each sample was assayed in triplicate. A positive control (VEGF) and a vehicle control containing PBS was also run in triplicate. […] Preliminary statistical significance was assessed with an independent Student t-test at α<0.05. Graphical representation of averages +/− standard errors were determined.
The first study investigated the angiogenic potential of bovine fractions prepared by gel filtration analysis as described in Example 3.2. As described in that Example, the alpha fraction contained αA and αB crystallin, the β H fraction contained all β crystallins, the β L1 fractions contained a sub-fraction of beta crystallins and a high content of βB2 crystallin and beta B3 crystallin and the beta L2 fraction contained only βB2 crystallin and βA3 crystallin.
The second study investigated the angiogenic potential of purified crystallin proteins. Briefly, βB3 crystallin was prepared by heating (97-99° C. for 3 minutes, supernatant collected by centrifugation) and was essentially homogenous. Alpha A crystallin and αB crystallin samples were prepared by ion exchange chromatography as described above and were also essentially homogenous. The Wound Heal 1-3 preparations were also tested in this study.
The third study investigated the angiogenic potential of ovine crystallin proteins compared to their bovine equivalents. Both bovine and ovine crystallin proteins were purified essentially to homogeneity by RP. HPLC using a C4 column, as described below in Example 5. Homogeneity was confirmed by SDS-PAGE. The effect of elastase I treatment of βB2 crystallin was also investigated by comparing the angiogenic potential of intact βB2 crystallin (i.e. undigested) with elastase I digested βB2 crystallin. Elastase I treatment releases the N-terminal and C-terminal extensions of the crystallin protein leaving a globular protein that is monomeric.
In the final study, ovine βB2 crystallin was tested alone or in combination with indoleamine 2,3-dioxygenase (IDO) and ovine alpha B crystallin was tested alone or in combination with tryptophan dioxygenase (TDO)
Briefly, in each study, a single Lewis rat was euthanised and its aorta transferred to a 15 mL Falcon tube containing 10 mL of MCBD-131 medium and stored on ice. After transferring the aorta to a 92×17 mm petri dish containing 10 mL of ice cold MCDB-131, the outer fatty tissue was removed under an Olympus SZ-60 Dissecting microscope. This was undertaken with fibre optic lamp illumination. The aorta was then cut into sequential rings approximately 2 mm in size. Connective tissue was removed with micro scissors and forceps from the outside of the individual rings. Clean rings were stored in a separate petri dish in sterile MCDB-131 medium. Rings were pre-incubated overnight at 37° C. in an atmosphere of 97% air/3% CO2.
To prepare gel sandwiches, 75 mg of fibrinogen was added to 25 mL MCDB-131 medium and shaken gently on a rocker roller for 5 minutes. 3 ml of MCDB-131/fibrinogen solution was added to a 15 mL Falcon tube, followed by 10 μL of thrombin and quickly mixed. A 0.4 mL volume of this fibrinogen-thrombin solution was added to each well on a 24 well plate, 6 wells at a time. Aortic rings were then placed on the setting gel, pushed gently into the gel and left for 45 minutes. These steps were then repeated so each ring was covered with 0.4 mL of gel. Gels were left to set at room temperature. […] The plate was then placed in incubator (37° C., 97% air/3% CO2).
Culture plate were examined daily for signs of infection (fungal growth or yellowing of media) in the wells using an inverted microscope. The growth of microvessels from their perimeters was also observed. Digital photographs of each well were taken seven days after plating using a Pixera PVC-100C digital camera mounted on an OLYMPUS CK-12 microscope and stored on a Macintosh Computer. […]

T1 sequence (P00772 27-266): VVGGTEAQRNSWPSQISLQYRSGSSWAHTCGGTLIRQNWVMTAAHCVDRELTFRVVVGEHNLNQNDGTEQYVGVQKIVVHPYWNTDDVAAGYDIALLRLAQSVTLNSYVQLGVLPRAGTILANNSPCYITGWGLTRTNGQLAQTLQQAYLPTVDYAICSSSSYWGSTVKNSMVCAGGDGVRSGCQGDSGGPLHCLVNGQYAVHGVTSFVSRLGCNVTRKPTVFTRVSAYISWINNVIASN

For `CO[C@@H]1[C@H](OC(=O)/C=C/C=C/C=C/C=C/C(=O)O)CC[C@]2(CO2)[C@H]1[C@@]1(C)O[C@@H]1CC=C(C)C` [Fumagillin], the “Rate of microvessel growth” value (rat aortic ring [1]; 20 μg/ml) was 9.462 ± 1.67, the Mean growth rate (rat aortic ring [1]; batch 1, 20 μg/ml) was 9.5 ± 1.7 and the Mean growth rate (rat aortic ring [1]; batch 2, 40 μg/ml) was 5.4 ± 1.6. For the same compound, the Stimulation/inhibition (rat aortic ring [1]; inhibition vs Control (HBSS), 20 μg/ml) was 24.07% inhibition, the “Percentage stimulation or inhibition” value (rat aortic ring [1]; inhibition, batch 1, 20 μg/ml) was 24.1% inhibition and the “Percentage stimulation or inhibition” value (rat aortic ring [1]; inhibition, batch 2, 40 μg/ml) was 57.7% inhibition.
In the case of `N[C@@H](Cc1c[nH]c2ccccc12)C(=O)O` [Tryptophan, tryptophan], the “endothelial cell migration (in words)” value [2] was “able to promote migration of the cells”.
“Bovine αA crystallin: bovine alpha A crystallin prepared by ion exchange chromatography, essentially homogenous” was tested, and the “chaperone activity: protection of elastase I from heat denaturation (in words)” value (elastase I) was “able to protect elastase I from heat inactivation”, the “increase in microvessel growth (stimulatory)” value (rat aortic ring [3]; second study, 200 μg/mL) was 8.26% and the “% of Control” value (rat aortic ring [3]; second study, 200 μg/mL) was 108.26%. For the same compound, the “angiogenic activity (in words)” value (rat aortic ring [3]; summary of second and third study) was “angiogenic” and the “activity in promoting angiogenesis” value (rat aortic ring [3]) was 108%.
For “Indoleamine 2,3-dioxygenase IDO: tryptophan hydrolyzing enzyme”, the “angiogenic activity (in words)” value (rat aortic ring [3]; forth study, 100 μg/mL) was “stimulatory” and the “% of Control” value (rat aortic ring [3]; forth study, 100 μg/mL) was 116.4%.
With VEGF [reference compound] the Mean growth rate (rat aortic ring [1]; batch 2, 40 μg/ml) was 13.9 ± 0.2, the “Percentage stimulation or inhibition” value (rat aortic ring [1]; stimulation, batch 2, 40 μg/ml) was 11.1% stimulation and the “inhibition of microvessel growth” value (rat aortic ring [3]; first study, 30 μg/ml, not statistically significant) was 15.08%. The “% of Control” value (rat aortic ring [3]; forth study, 50 μg/mL) was 113.7%, the “angiogenic effect on microvessel growth (in words)” value (rat aortic ring [3]; second study, VEGF 50 μg/mL, test samples 200 μg/mL) was “slight stimulation” and the “% of Control” value (rat aortic ring [3]; second study, 50 μg/mL) was 107.08%. For the same compound, the “activity in promoting angiogenesis” value (rat aortic ring [3]; 50 ng/mL) was 107% and the “% of Control” value (rat aortic ring [3]; third study, 50 μg/mL) was 113.7%.

Source: US8404644B2, “Agents with angiogenic and wound healing activity” (Meat & Livestock Australia Limited, priority 2007, dated 2013)
